Earlier results as cited in article PMC9290462 (British Journal of Clinical Pharmacology, 2020).

Assays:
[1] = test system: patients with moderate‐to‐severe SLE

Row | bleeding events (healthy volunteers) | alanine aminotransferase, aspartate aminotransferase and lipase | SMILES | primary efficacy endpoint [1] | tolerability (healthy volunteers)
1 | no reported bleeding events | – | C[C@H]1CN(C2COC2)CCN1c1ccc(Nc2cc(-c3ccnc(N4CCn5c(cc6c5CC(C)(C)C6)C4=O)c3CO)cn(C)c2=O)nc1 [fenebrutinib] | failed to meet its primary efficacy endpoint | well tolerated
2 | – | associated with increases | Cc1c(-c2c(F)cc(C(N)=O)c3[nH]c4c(c23)CC[C@H](C(C)(C)O)C4)cccc1-n1c(=O)c2cccc(F)c2n(C)c1=O [BMS‐986142] | – | –
3 | – | associated with increases | C=CC(=O)N1CCC(CNc2ncnc(N)c2-c2ccc(Oc3ccccc3)cc2)CC1 [Evobrutinib, evobrutinib] | – | –
